Data published in ChEMBL document CHEMBL1156829 (Proc Natl Acad Sci U S A, 2008).
pEC50: −log10 of the molar value.

Tests used:
Plasmodium falciparum [1] = assay: NOVARTIS: Inhibition of Plasmodium falciparum 3D7 (drug-susceptible) proliferation in erythrocyte-based infection assay; format: functional, organism-based; conditions: Plasmodium falciparum, 3D7
Plasmodium falciparum [2] = assay: NOVARTIS: Inhibition of Plasmodium falciparum W2 (drug-resistant) proliferation in erythrocyte-based infection assay; format: functional, organism-based; conditions: Plasmodium falciparum, W2; read-out: EC50
[3] = NOVARTIS: Cytotoxicity against human hepatocellular carcinoma cell line (Huh7); format: toxicity, cell-based, Huh-7; conditions: Huh7 cells (hepatocellular carcinoma cell line)

CCC(c1nc2ccccc2c(=O)n1-c1ccc(F)c(Cl)c1)N(CCc1ccccc1)C(=O)COc1ccc(Cl)cc1 (centres undefined) showed a pEC50 (Plasmodium falciparum [1]) of 6.03, a pEC50 (Plasmodium falciparum [2]) of over 9.07 and a CC50 [3] of over 6450 nM.
Cc1ccc(-c2cc(C)[n+](C)c(-c3ccc(C)cc3)c2)cc1 gave a pEC50 (Plasmodium falciparum [1]) of 6.50, a pEC50 (Plasmodium falciparum [2]) of 6.12 and a CC50 [3] of 7520 nM.
Molecule O=C(Nc1ccc(-c2nc3ccc(NC(=O)c4cccc5ccccc45)cc3[nH]2)cc1)c1cccc2ccccc12 has a pEC50 (Plasmodium falciparum [1]) of 5.85, a pEC50 (Plasmodium falciparum [2]) of 5.72 and a CC50 [3] of over 10000 nM.
Molecule CCCCNCCN1CCN(c2cc(OC)cc(OC)c2)C[C@@H]1Cc1ccccc1 has a pEC50 (Plasmodium falciparum [1]) of under 5.90, a pEC50 (Plasmodium falciparum [2]) of 6.03 and a CC50 [3] of 10300 nM.
In the case of OC(Cn1cnc(-c2ccccc2)c1-c1ccccc1)Cn1c2ccc(Cl)cc2c2cc(Cl)ccc21 (centres undefined), the pEC50 (Plasmodium falciparum [1]) was 6.23, the pEC50 (Plasmodium falciparum [2]) was 7.00 and the CC50 [3] was 21200 nM.
With CCC1=NN2C(=N)/C(=C/c3ccc(OCCOc4ccc(Br)cc4)c(OC)c3)C(=O)N=C2S1 the pEC50 (Plasmodium falciparum [1]) was under 5.90, the pEC50 (Plasmodium falciparum [2]) was under 6.17 and the CC50 [3] was over 10000 nM.
In the case of COC(=O)c1c(S(=O)(=O)NCc2cccc(Cl)c2)sc2c1CCN(C(=O)C1CCCO1)C2 (centres undefined), the pEC50 (Plasmodium falciparum [1]) was under 6.22, the pEC50 (Plasmodium falciparum [2]) was under 6.44 and the CC50 [3] was over 10000 nM.
In the case of COc1cc2c(O[C@@H]3O[C@H](CO)[C@@H](O)[C@H](O)[C@H]3O)c3c(c(-c4ccc5c(c4)OCO5)c2cc1OC)C(=O)OC3, the pEC50 (Plasmodium falciparum [1]) was 7.13, the pEC50 (Plasmodium falciparum [2]) was 6.92 and the CC50 [3] was 784 nM.
In the case of CCOc1ccc(N2C(=O)c3ccccc3NC2(C)C)cc1, the pEC50 (Plasmodium falciparum [1]) was under 5.00, the pEC50 (Plasmodium falciparum [2]) was under 4.90 and the CC50 [3] was over 100000 nM.
CCOC(=O)C1=CN(c2cc(C)ccc2C)C=C(C(=O)OCC)C1c1ccccc1OCC showed a pEC50 (Plasmodium falciparum [1]) of 6.58, a pEC50 (Plasmodium falciparum [2]) of 6.48 and a CC50 [3] of over 100000 nM.
CN(CCCNc1ccc(C(=O)Nc2ccc(C(F)(F)F)cc2)cc1[N+](=O)[O-])Cc1ccccc1 gave a pEC50 (Plasmodium falciparum [1]) of 6.50, a pEC50 (Plasmodium falciparum [2]) of 6.14 and a CC50 [3] of over 100000 nM.
CSc1nc2sc3c(c2c(=O)n1-c1ccccc1)CCN(CCc1ccccc1)C3 showed a pEC50 (Plasmodium falciparum [1]) of 6.07, a pEC50 (Plasmodium falciparum [2]) of 5.94 and a CC50 [3] of over 69300 nM.
In the case of CCC(Cc1cnc2nc(N)nc(N)c2n1)c1ccc(C(=O)N[C@@H](CCC(=O)O)C(=O)O)cc1 (some centres undefined) [EDATREXATE], the pEC50 (Plasmodium falciparum [1]) was 7.83, the pEC50 (Plasmodium falciparum [2]) was 6.97 and the CC50 [3] was 30.4 nM.
Work on Cc1ccc(NC(=O)N2CCN(C(=O)c3nc(-c4ccccc4)nc(C)c3C(=O)OC(C)C)CC2C)c(C)c1 (centres undefined) yielded a pEC50 (Plasmodium falciparum [1]) of under 6.57, a pEC50 (Plasmodium falciparum [2]) of 6.47 and a CC50 [3] of over 10000 nM.
COc1ccc2c(c1)OC(O)(C(F)(F)C(F)(F)F)CC2=O (centres undefined) showed a pEC50 (Plasmodium falciparum [1]) of 6.35, a pEC50 (Plasmodium falciparum [2]) of 6.00 and a CC50 [3] of 49700 nM.
Molecule Nc1c(Cl)c(Cl)nc(C(Cl)(Cl)Cl)c1Cl has a pEC50 (Plasmodium falciparum [1]) of 6.35, a pEC50 (Plasmodium falciparum [2]) of 6.54 and a CC50 [3] of over 100000 nM.
Cc1cccc2cc(CNC34CC5CC(CC(C5)C3)C4)c(N3CCC(N4CCC(O)CC4)CC3)nc12 gave a pEC50 (Plasmodium falciparum [1]) of 6.10, a pEC50 (Plasmodium falciparum [2]) of 6.79 and a CC50 [3] of 4900 nM.
N#Cc1cc2[nH]c3ccccc3c2n(-c2ccc([N+](=O)[O-])cc2)c1=N gave a pEC50 (Plasmodium falciparum [1]) of 6.28, a pEC50 (Plasmodium falciparum [2]) of 5.46 and a CC50 [3] of over 100000 nM.
Work on CN1CCCC1CCNc1ncc(C(=O)NCCc2ccccc2)c(NCC2CCCCC2)n1 (centres undefined) yielded a pEC50 (Plasmodium falciparum [1]) of 6.22, a pEC50 (Plasmodium falciparum [2]) of 5.87 and a CC50 [3] of over 10000 nM.
Cc1cc(N2CCN(C)CC2)nc2ccc(NC(=O)c3ccc(Br)o3)cc12 showed a pEC50 (Plasmodium falciparum [1]) of 5.77, a pEC50 (Plasmodium falciparum [2]) of 5.57 and a CC50 [3] of 53700 nM.
With CC(=O)c1ccc(NC(=O)CN(C)S(=O)(=O)c2ccc3[nH]c4c(c3c2)CCCC4)cc1 the pEC50 (Plasmodium falciparum [1]) was under 4.90, the pEC50 (Plasmodium falciparum [2]) was 5.45 and the CC50 [3] was 66900 nM.
Molecule COc1nccnc1NS(=O)(=O)c1ccc(NC(=O)c2cc3ccccc3oc2=O)cc1 has a pEC50 (Plasmodium falciparum [1]) of under 5.90, a pEC50 (Plasmodium falciparum [2]) of under 6.37 and a CC50 [3] of over 10000 nM.
Molecule COc1cccc(C2C(C(=O)Nc3ccccc3)=C(C)N=c3sc(=Cc4c[nH]c5ccccc45)c(=O)n32)c1 (centres undefined) has a pEC50 (Plasmodium falciparum [1]) of 5.61, a pEC50 (Plasmodium falciparum [2]) of 6.02 and a CC50 [3] of over 100000 nM.
Work on O=S(=O)(Nc1ccc(F)cc1)N1CCCCCC1 yielded a pEC50 (Plasmodium falciparum [1]) of under 4.90, a pEC50 (Plasmodium falciparum [2]) of 5.87 and a CC50 [3] of over 100000 nM.
Work on CC1CCN(CCCNc2ccc(C(=O)Nc3ccc(C(F)(F)F)cc3)cc2[N+](=O)[O-])CC1 yielded a pEC50 (Plasmodium falciparum [1]) of 6.70, a pEC50 (Plasmodium falciparum [2]) of 6.56 and a CC50 [3] of 23400 nM.
OC1=C2C(=Nc3ccccc3SC2c2cccs2)c2ccccc21 (centres undefined) showed a pEC50 (Plasmodium falciparum [1]) of 7.37, a pEC50 (Plasmodium falciparum [2]) of over 8.61 and a CC50 [3] of 49500 nM.
For O=[N+]([O-])c1ccc(S(=O)(=O)N2CCN(C(=S)NCc3ccccc3)CC2)cc1, the pEC50 (Plasmodium falciparum [1]) was 7.10, the pEC50 (Plasmodium falciparum [2]) was 7.42 and the CC50 [3] was over 100000 nM.
With CCOC(=O)c1[nH]c(CSC#N)c(C(C)=O)c1C the pEC50 (Plasmodium falciparum [1]) was under 5.90, the pEC50 (Plasmodium falciparum [2]) was under 6.42 and the CC50 [3] was over 10000 nM.
Molecule O=c1c2c([nH]c3cc(Cl)ccc13)CCCC2 has a pEC50 (Plasmodium falciparum [1]) of 6.48, a pEC50 (Plasmodium falciparum [2]) of 6.19 and a CC50 [3] of over 100000 nM.
CN(C)c1ccc(/C=C2\SC(=Nc3ccc(O)cc3)NC2=O)cc1 showed a pEC50 (Plasmodium falciparum [1]) of 5.94, a pEC50 (Plasmodium falciparum [2]) of 6.28 and a CC50 [3] of 8590 nM.
CC(C)(C)NCC(O)Cn1c2ccc(Br)cc2c2cc(Br)ccc21 (centres undefined) showed a pEC50 (Plasmodium falciparum [1]) of 6.67, a pEC50 (Plasmodium falciparum [2]) of 7.85 and a CC50 [3] of 20700 nM.
Fc1ccc(-c2c[n+](Cc3ccc(Cl)cc3Cl)c3n2CCC3)cc1 gave a pEC50 (Plasmodium falciparum [1]) of 5.84, a pEC50 (Plasmodium falciparum [2]) of 6.06 and a CC50 [3] of over 100000 nM.
With Cc1ccc(CNC(=O)c2cc(=O)[nH]c3ccc(S(=O)(=O)N4CCOCC4)cc23)cc1 the pEC50 (Plasmodium falciparum [1]) was 5.84, the pEC50 (Plasmodium falciparum [2]) was under 5.96 and the CC50 [3] was over 10000 nM.
